Assay results published in US8710064B2, “2-aryl-4-quinazolinones and their pharmaceutical compositions” (China Medical University, priority 2011, dated 2014).
Read-outs that look alike come from different tables or passages of the source.

How the values were obtained:
CH27 = experiment: trypan blue exclusion assay, CH27 cells; assay type: cell-based; conditions: CH27 human lung squamous carcinoma
Method: CH27 cells (Human lung squamous carcinoma) were grown in monolayer culture in Dulbecco's modified Eagle's medium (DMEM; Life Technologies, Rockville, Md., USA) containing 5% FBS (HyClone, Logan, Utah, USA), 100 U/ml penicillin, […] streptomycin (Gibco BRL, Rockville, Md., USA) and 2 mM glutamine (Merck, Darmstadt, Germany).
(§1) Cell viability was also determined by trypan-blue exclusion assay. Cells were seeded in 6-well plates (2×10^4/well) for trypan blue exclusion assay, and incubated for 24 hours at 37° C. Culture medium containing test compound or DMSO (0.006%) was added to each well, and cells were incubated at 37° C. At indicated time points (0, 24, 48, 72 and 96 hr), cells were suspended with 0.05% trypsin-EDTA, and stained with trypan-blue dye (0.4%) (Sigma). The cell viability was evaluated by the percentage of death relative to the total cell, and cell growth curve was determined by number of live cells relative to the total number of cells.
(§2) The anti-proliferation effects of Compounds 17-31 on M21, CH27, H460, Hep3B and HSC-3 cells were evaluated by the trypan blue exclusion assay.

[1] = tested on: glioma cell lines C6, RT2, U87, U251, U373 and T98G; experiment: MTS cell viability assay, glioma cell lines; assay type: cell-based, rat and human
Method: (§3) The human glioma cell lines U87, U251, T98G, U373, and rat glioma cell line RT2 provided by Dr. Michael Hsiao (Genomics Research Center, Academia Sinica, Taiwan) were cultured in Dulbecco's Modified Eagle medium (DMEM) (Caisson) supplemented with 10% fetal bovine serum (FBS) (Sigma-Aldrich), 2 mM L-glutamine (Caisson), 100 U/ml penicillin, and 100 μg/ml streptomycin (Caisson). The rat glioma C6 cell line provided by Dr. Shun-Fen Tzeng (National Cheng Kung University, Taiwan) was cultured in DMEM/F12 (Caisson) supplemented with 10% fetal bovine serum, 2 mM L-glutamine, 100 U/ml penicillin, and 100 μg/ml streptomycin. The human normal glia cell line SVGP12, kindly provided by Dr. Michael Hsiao, was cultured in Minimum Essential Medium (MEM) (Invitrogen) supplemented with 10% fetal bovine serum, 2 mM L-glutamine, 100 U/ml penicillin, and […]. Primary glia cells were prepared by surgery. […]
(§4) Cell proliferation was determined by MTS (tetrazolium compound, 3-(4,5-dimethylthiazol-2-yl)-5-(3-carboxymethoxyphenyl)-2-(4-sulfophenyl)-2H-tetrazolium) assay (Promega). […] The absorbance of soluble formazan was measured at 490 nm with microplate reader (Molecular device). The cell viability was determined by the percentage of the absorption relative to untreated control. […]
The effects of MJ-66 on other glioma cell lines were further examined. […] Cell viability was assessed by MTS assay (mean±SEM, n=3). […]

Hep3B = experiment: trypan blue exclusion assay, Hep3B cells; assay type: cell-based; conditions: Hep3B human hepatoma
Method: Hep3B (human hepatocellular carcinoma) and H460 (lung non-small carcinoma) cells were grown in monolayer culture in Dulbecco's modified Eagle's medium (DMEM) (Life Technologies, Rockville, Md., USA) containing 5% fetal bovine serum (HyClone, Logan, Utah, USA), 100 U/ml penicillin and 100 μg/ml streptomycin (Gibco BRL, Rockville, Md., USA) and 2 mM glutamine (Merck, Darmstadt, Germany).
as §1, §2

C6 rat glioma = experiment: MTS cell viability assay, C6 glioma cells; assay type: cell-based; conditions: 48 hours, mean±SEM, n=3
Method: as §3, with “surgery. Cerebral cortices without meninges were dissected from postnatal (P0-P2) Sprague-Dawley (SD, NCKU Laboratory Animal Center) rats and dissociated in 0.05% trypsin-EDTA (Biowest) at 37° C. for 10 min. Culture medium was added and pipetted for several times, and supernatant was removed after a centrifugation at 1,000 rpm for 5 minutes.” for “surgery.”
as §4
To investigate the effect of 2-aryl-4-quinazolinone in accordance with the present invention on cell proliferation, glioma cell lines were treated with MJ-66, MJ-68, or MJ-78. […] The cell viability of each group was analyzed by MTS assay (mean±SEM, n=3).

M21 = experiment: trypan blue exclusion assay, M21 cells; assay type: cell-based; conditions: Homo sapiens
Method: M21 cell line (human malignant melanoma) was provided by Dr. Feng-Yao Tang (China Medical University, Taiwan). Cells were grown in monolayer culture in RPMI-1640 medium, Eagle's minimum essential medium or Dulbecco's modified Eagles medium (Invitrogen Corporation, Grand Island, N.Y., USA) containing 10% fetal bovine serum (FBS; HyClone, Logan, Utah, USA), 100 U/ml penicillin and 100 μg/ml streptomycin (Gibco BRL, Rockville, Md., USA).
as §1, §2

SMILES: O=c1[nH]c(-c2cccc3ccccc23)nc2ccc(N3CCCC3)cc12 [Compound 23, 6-(Pyrrolidin-1-yl)-2-(naphthalen-1-yl)quinazolin-4-one]
- IC50 (CH27): 0.053 µM
- survival rates of glioma cell lines ([1]; 0.00625-1 μM, 24, 48 and 72 hr, MTS assay): decreased in a time- and concentration-dependent manner
- IC50 ([1]; Glioma cell, in vitro, read-out: IC50, growth of glioma cells): ~0.06 µM
- IC50 (Hep3B): 1.35 µM
- IC50 (C6 rat glioma): 0.056 ± 0.009 µM
- IC50 (M21; M21, in vitro, read-out: IC50, growth of human malignant melanoma cells): ~0.033 µM
- IC50 (M21; M21 skin cancer, trypan blue exclusion assay, read-out: IC50 M21): 0.033 µM
